Measured values: patent publication US11279694B2, “Alvocidib prodrugs and their use as protein kinase inhibitors” (Sumitomo Dainippon Pharma Oncology, Inc., priority 2016, dated 2022)
Values joined by “and” are separate entries in the source; they are usually repeats but may differ in a detail not shown here. Equal values may be shown once.

How the values were obtained:
[1] = Pharmacokinetic testing of representative compounds in CD-1 mice, oral dosing; type: in vivo; details: mean ± SD; for AUC0→∞, analyte: prodrug compound / AUCLast, analyte: prodrug compound / half-life / Tmax: dosed orally 10 mg/kg, analyte = dosed prodrug, nd = none detected; for half-life / Tmax: mouse, in vivo, po; for half-life: read-out: Half Life, analyte: prodrug compound (converted); for Tmax: read-out: Tmax, analyte: prodrug compound
Procedure: Representative compounds were tested for pharmacokinetic activity in CD-1 mice. Mice were dosed orally with 10 mg/kg of each representative compound as well as alvocidib.
The results in Table 3 show the tested compounds afforded high exposure of released alvocidib and no apparent exposure of the prodrug compounds. Additional results are shown in Tables 4 and 5, including use of alvocidib.HCl as a control: […]

[2] = Comparison of exposure of released alvocidib to parent prodrug exposure; type: in vivo; details: expressed as a percentage of the released alvocidib exposure
Procedure: Representative prodrug compounds (i.e., Compounds 10, 21-28 and 29-31) were tested to determine the resultant exposure of released alvocidib as well exposure of the parent compound. The exposure of the parent prodrug is expressed as a percentage of the released alvocidib exposure (% F). The released alvocidib exposure (% F) for each prodrug was calculated as a percentage of the exposure of alvocidib, dosed orally at an equivalent dose.

[3] = labelled compound dosed orally 10 mg/kg, analyte = alvocidib (released from prodrug, or alvocidib.HCl control), hydrochloride, 10 mg/kg

| AUC0→∞, analyte: prodrug compound [1] | AUCLast, analyte: prodrug compound [1] | half-life [1] [h] | Tmax [1] [h] | exposure of the parent prodrug [2] | Structure (SMILES) | also measured |
| --- | --- | --- | --- | --- | --- | --- |
|  |  |  |  | not detected | CN1CC[C@H](c2c(O)cc(O)c3c(=O)cc(-c4ccccc4Cl)oc23)[C@H](OC(=O)CN)C1 [Compound 28, (3S, 4R)-4-(2-(2-chlorophenyl)-5,7-dihydroxy-4-oxo-4H-chromen-8-yl)-1-methylpiperidin-3-yl glycinate] |  |
|  |  |  |  | low exposure | C[C@H](N)C(=O)O[C@@H]1CN(C)CC[C@@H]1c1c(O)cc(O)c2c(=O)cc(-c3ccccc3Cl)oc12 [Compound 27, (3S, 4R)-4-(2-(2-chlorophenyl)-5,7-dihydroxy-4-oxo-4H-chromen-8-yl)-1-methylpiperidin-3-yl L-alaninate] |  |
|  |  |  |  | not detected | CCCCC(=O)O[C@@H]1CN(C)CC[C@@H]1c1c(O)cc(O)c2c(=O)cc(-c3ccccc3Cl)oc12 [Compound 32, (3S, 4R)-4-(2-(2-chlorophenyl)-5,7-dihydroxy-4-oxo-4H-chromen-8-yl)-1-methylpiperidin-3-yl pentanoate] |  |
|  |  |  |  | not detected | CCCCCCC(=O)O[C@@H]1CN(C)CC[C@@H]1c1c(O)cc(O)c2c(=O)cc(-c3ccccc3Cl)oc12 [Compound 31, (3S, 4R)-4-(2-(2-chlorophenyl)-5,7-dihydroxy-4-oxo-4H-chromen-8-yl)-1-methylpiperidin-3-yl heptanoate] |  |
|  |  |  |  | 3% | CC(C)C(=O)O[C@@H]1CN(C)CC[C@@H]1c1c(O)cc(O)c2c(=O)cc(-c3ccccc3Cl)oc12 [Compound 22, (3S, 4R)-4-(2-(2-chlorophenyl)-5,7-dihydroxy-4-oxo-4H-chromen-8-yl)-1-methylpiperidin-3-yl isobutyrate] |  |

The next lines start with the compound.

| Structure (SMILES) | AUC0→∞, analyte: prodrug compound [1] | AUCLast, analyte: prodrug compound [1] | half-life [1] [h] | Tmax [1] [h] | exposure of the parent prodrug [2] | also measured |
| --- | --- | --- | --- | --- | --- | --- |
| CNC(=O)O[C@@H]1CN(C)CC[C@@H]1c1c(O)cc(O)c2c(=O)cc(-c3ccccc3Cl)oc12 [Compound 13, (3S, 4R)-4-(2-(2-chlorophenyl)-5,7-dihydroxy-4-oxo-4H-chromen-8-yl)-1-methylpiperidin-3-yl methylcarbamate] | 620.2 ± 147.7 ng · h/mL or ng · h/G | 594.7 ± 143.7 ng · h/mL or ng · h/G | 2 ± 0.8 | 0.4 ± 0.1 |  |  |
| COC(=O)O[C@@H]1CN(C)CC[C@@H]1c1c(O)cc(O)c2c(=O)cc(-c3ccccc3Cl)oc12 [Compound 11, (3S, 4R)-4-(2-(2-chlorophenyl)-5,7-dihydroxy-4-oxo-4H-chromen-8-yl)-1-methylpiperidin-3-yl methyl carbonate] | 275.1 ± 24.1 ng · h/mL or ng · h/G | 238.3 ± 43.9 ng · h/mL or ng · h/G | 4.2 ± 0.1 | 0.25 |  |  |
| CCNC(=O)O[C@@H]1CN(C)CC[C@@H]1c1c(O)cc(O)c2c(=O)cc(-c3ccccc3Cl)oc12 [Compound 12, (3S, 4R)-4-(2-(2-chlorophenyl)-5,7-dihydroxy-4-oxo-4H-chromen-8-yl)-1-methylpiperidin-3-yl ethylcarbamate] | 281.4 ± 28.3 ng · h/mL or ng · h/G | 262.2 ± 27.8 ng · h/mL or ng · h/G | 2.1 ± 0.1 | 0.42 ± 0.1 |  |  |
| CN1CC[C@H](c2c(O)cc(O)c3c(=O)cc(-c4ccccc4Cl)oc23)[C@H](O)C1.Cl [Alvocidib•HCl, 2-(2-chlorophenyl)-5,7-dihydroxy-8-[(3S,4R)-3-hydroxy-1-methylpiperidin-4-yl]-4H-chromen-4-one hydrochloride, reference compound] |  |  |  |  |  | AUC0→∞, analyte: Alvocidib [1, 3]: 10,933.3 ± 4498.0 ng · h/mL or ng · h/G and 10,603.8 ± 1968.4 ng · h/mL or ng · h/G; AUCLast, analyte: Alvocidib [1, 3]: 7275.2 ± 2572.2 ng · h/mL or ng · h/G and 9952.7 ± 1769.5 ng · h/mL or ng · h/G |
| CCOC(=O)O[C@@H]1CN(C)CC[C@@H]1c1c(O)cc(O)c2c(=O)cc(-c3ccccc3Cl)oc12 [Compound 10, (3S, 4R)-4-(2-(2-chlorophenyl)-5,7-dihydroxy-4-oxo-4H-chromen-8-yl)-1-methylpiperidin-3-yl ethyl carbonate] | 646.8 ± 219.4 ng · h/mL or ng · h/G | 405.4 ± 215.6 ng · h/mL or ng · h/G | 3.8 ± 0.6 | 0.25 | 2% |  |
